“Also recorded” adds a separate entry of the source. Like-named read-outs stand apart in the source and are kept apart here.
What was measured:
KCa2.3 = biological target: T1, KCa2.3 (Homo sapiens, UniProt Q9UGI6); assay: Potassium channels patch-clamp (QPatch), KCa2.3; format: cell-based
T1 construct: expressed in transfected cells; host or cells: COS7
Protocol: The effects of Group 4 compounds on related potassium channels were evaluated by patch-clamp using a QPatch HTX automated electrophysiology platform (Sophion, Denmark). The giga-seal and whole-cell requirements for the automated electrophysiology were the following: minimum seal resistance=0.1 GO, holding potential=−80 mV, holding pressure=−20 mbar; and positioning pressure=−70 mbar.

[1] = Plasma protein binding assay (equilibrium dialysis), human plasma; format: in vitro ADME; conditions: pH 7.4
Protocol: Human and mouse plasma (150 μL) containing test compound (3 μM, final concentration) and sodium phosphate buffer (150 μL, 100 mM, pH 7.4) were added to the equilibrium dialysis device and equilibrated at 37° C. for 4.5 h with constant shaking. After equilibration, 10 μL of the plasma was taken out from the first half of the well and mixed with 50 μL of blank buffer, and later quenched with 200 μL of 0.05% formic acid in ACN containing 100 ng/mL of Loperamide, Phenacetin & Tolbutamide as internal standards. Similarly, 50 μL of […] was taken from the second half of the well and mixed with 10 μL of blank […] before quenching. […] All samples were centrifuged at 14,000 rpm for 5 min at 4° C. Warfarin and naltrexone were used as positive controls. Supernatant of all samples were analyzed by LC-MS/MS.

[2] = Plasma and liver studies after 14 days of repeated oral dose; format: in vivo, C57/BL6 mice; conditions: C57/BL6, mouse; for Kp at 14 days: liver/plasma, read-out: Liver to Plasma Ratio
[3] = test system: Iba1+CD11b+ double positive microglia; assay: Immunohistochemistry analysis on microglia and leukocytes markers in MCAO brains; format: in vivo, rats; conditions: 10 mg/kg, day 7, brain areas CA1, CPu, M1 and S1, vs MCAO or vehicle groups
Protocol: The animals were anaesthetized with isoflurane (RWD Life Science), perfused and fixed with 4% PFA (Sinopharm Chemical Reagent). The brain tissues were further soaked in 4% PFA […] at 4° C. overnight and then treated with a gradient of sucrose solutions (20-30%, Sinopharm Chemical Reagent) before being embedded with OCT (Leica) and frozen at −80° C. For immunofluorescence staining, the brain slices from primary somatosensory cortex (S1), primary motor cortex (M1), field CA1 of hippocampus (CA1) and caudate putamen (striatum, CPu) were heated for 30 min and then washed with 0.01 M PBS (pH=7.2-7.4, 5 min×3). After washing, the sections were blocked with 0.3% TritonX-100 (Solarbio) in 10% sheep serum (Solarbio) at RT for 1 h. Following removal of the blocking solution, the brain sections were incubated with primary antibodies Iba1 (Proteintech, Cat.10904-1-AP) and CD11b (Thermo Fisher, Cat. MA5-17857) overnight at 4° C. Following 3 washes with 0.01 M PBS (5 min each), the sections were incubated with Backlight plus secondary antibody (Abcam, Cat. ab150113; Cat.ab150080) at RT for 2 h. After 3 washes, the nuclei were stained with 4′, 6-diamidino-2-phenylindole (DAPI, Beyotime Biotech, Cat. C1006). […] The number of Iba1^+CD11b^+ double positive microglia were analyzed by Image J V1.8.0. […]

[4] = Plasma and brain distribution studies
Protocol: The dosing volume for intraperitoneal administration was 5 mL/kg. Following blood collection, the animals were sacrificed, and their abdominal vena-cava were cut open and whole body were perfused from heart using 10 mL normal saline. The brain samples were collected from a set of three mice at 0.08, 0.25, 0.5, 1, 2, 4, 8 and 10 h. After isolation, the brain samples were rinsed thrice in ice cold normal saline (for 5-10 s/rinse using ˜10-20 mL normal saline in disposable petri dish for each rinse) and dried on blotting paper. The brain samples were homogenized using ice-cold phosphate buffer saline (pH=7.4). The total homogenate volume was three times the tissue weight. All homogenates were stored below −70° C. until bioanalysis. […] Non-Compartmental-Analysis tool of Phoenix WinNonlin® (Version 8.0) was used to assess the pharmacokinetic parameters.

[5] = test system: middle cerebral artery occlusion (MCAO); assay: Neurological behavioral evaluation in MCAO model (18-point system); format: in vivo, SD male rats; conditions: 48 h and day 7, rat MCAO, vs Edaravone
Excerpt: The animals were individually assessed based on the scoring method described in Table 18.

[6] = test system: middle cerebral artery occlusion (MCAO); assay: MCAO ischemia-reperfusion model, infarct volume (TTC staining); format: in vivo, SD male rats
[7] = male, C57BL/6, mouse, brain, ip, 50 mg/kg
[8] = male, C57BL/6, mouse, plasma, ip, 50 mg/kg

T1 sequence (Q9UGI6 whole entry): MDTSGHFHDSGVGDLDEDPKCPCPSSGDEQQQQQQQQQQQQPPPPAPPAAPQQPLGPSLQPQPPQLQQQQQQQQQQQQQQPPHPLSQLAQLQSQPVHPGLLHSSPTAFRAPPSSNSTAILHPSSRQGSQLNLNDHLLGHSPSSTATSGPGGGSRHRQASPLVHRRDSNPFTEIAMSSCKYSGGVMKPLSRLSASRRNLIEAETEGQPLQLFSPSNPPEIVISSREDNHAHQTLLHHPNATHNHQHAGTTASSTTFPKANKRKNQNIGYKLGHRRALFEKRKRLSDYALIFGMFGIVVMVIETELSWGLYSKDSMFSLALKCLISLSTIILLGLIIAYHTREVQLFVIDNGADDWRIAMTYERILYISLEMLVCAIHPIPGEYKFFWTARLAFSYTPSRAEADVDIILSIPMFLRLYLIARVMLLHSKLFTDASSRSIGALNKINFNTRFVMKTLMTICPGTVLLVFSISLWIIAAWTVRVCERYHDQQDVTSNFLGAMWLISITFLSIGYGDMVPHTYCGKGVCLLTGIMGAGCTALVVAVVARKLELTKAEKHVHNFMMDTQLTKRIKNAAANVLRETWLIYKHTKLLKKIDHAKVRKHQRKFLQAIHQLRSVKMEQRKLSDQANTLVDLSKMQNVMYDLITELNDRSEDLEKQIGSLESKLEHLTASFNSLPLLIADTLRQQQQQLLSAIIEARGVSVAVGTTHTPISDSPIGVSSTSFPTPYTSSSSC

What does the source list for `COC(=O)C1=C(C)NC(C)=C(C(=O)OC)C1c1ccc(F)c(C(F)(F)F)c1` [Compound 101]?
IC50 (KCa2.3): 8 µM; fraction unbound at 4.5 h, 3 μM [1]: 0.0073

For `COC(=O)C1=CNC=C(C(=O)OC)C1c1ccc(F)c(C(F)(F)F)c1` [Compound 103, Dimethyl 4-(4-fluoro-3-(trifluoromethyl)phenyl)-1,4-dihydropyridine-3,5-dicarboxylate], which Kp at 14 days ([2]; 25 mg/kg BID oral 14 days, Female mice) is on record?
Its Kp at 14 days is 85.6.

What about the Kp at 14 days ([2]; 25 mg/kg BID oral 14 days, Male mice) of the same compound?
Its Kp at 14 days is 36.

And the Kp at 14 days ([2]; 50 mg/kg BID oral 14 days, Female mice)?
The Kp at 14 days was 31.9.

What about the Kp at 14 days ([2]; 50 mg/kg BID oral 14 days, Male mice) of the same compound?
Its Kp at 14 days is 19.6.

What about the concentration at 14 days ([2]; liver, 25 mg/kg BID oral 14 days, Female mice, read-out: Average Concentration Liver) of the same compound?
The concentration at 14 days was 8420 ng/g.

And the concentration at 14 days ([2]; liver, 25 mg/kg BID oral 14 days, Male mice, read-out: Average Concentration Liver)?
Its concentration at 14 days is 10100 ng/g.

And the concentration at 14 days ([2]; liver, 50 mg/kg BID oral 14 days, Female mice, read-out: Average Concentration Liver)?
The concentration at 14 days was 12100 ng/g.

And the concentration at 14 days ([2]; liver, 50 mg/kg BID oral 14 days, Male mice, read-out: Average Concentration Liver)?
Its concentration at 14 days is 17500 ng/g.

And the concentration at 14 days ([2]; plasma, 25 mg/kg BID oral 14 days, Female mice, read-out: Average Concentration Plasma)?
The concentration at 14 days was 100 ng/mL.

And the concentration at 14 days ([2]; plasma, 25 mg/kg BID oral 14 days, Male mice, read-out: Average Concentration Plasma)?
The concentration at 14 days was 297 ng/mL.

And the concentration at 14 days ([2]; plasma, 50 mg/kg BID oral 14 days, Female mice, read-out: Average Concentration Plasma)?
The concentration at 14 days was 401 ng/mL.

What about the concentration at 14 days ([2]; plasma, 50 mg/kg BID oral 14 days, Male mice, read-out: Average Concentration Plasma) of the same compound?
The concentration at 14 days was 929 ng/mL.

What about the “number of Iba1+CD11b+ double positive activated microglia” value [3] of the same compound?
Its value is “significantly reduced; also recorded: effectively reduced”.

And the AUClast ([4]; Brain, IP 50 mg/kg, mice)?
Its AUClast is 88658.12 ng·h/g.

And the Cmax [4, 7]?
The Cmax was 26800 ng/g.

What about the MRT last [4, 7] of the same compound?
The MRT last was 2.09 h.

And the Tmax [4, 7]?
Its Tmax is 0.25 h.

What about the half-life [4, 7] of the same compound?
The half-life was 1.06 h.

And the AUC(0-t) [4, 8]?
Its AUC(0-t) is 20000 ng·h/mL.

What about the Cmax [4, 8] of the same compound?
Its Cmax is 8540 ng/mL.

And the MRT last [4, 8]?
The MRT last was 2.02 h.

What about the Tmax [4, 8] of the same compound?
Its Tmax is 0.25 h.

And the half-life [4, 8]?
The half-life was 1.63 h.

What about the neurological behavioral scores [5] of the same compound?
The neurological behavioral scores was “improves neurological behavior scores more effectively than Edaravone; also recorded: improved neurological behavioral scores”.

What about the “reduction of infarct volume” value ([6]; 10 mg/kg intraperitoneal twice daily, 7 days, rat MCAO) of the same compound?
The value was ~50%.

What about the infarct volume ([6]; rat MCAO 60 min, 7 days reperfusion, vs vehicle and Edaravone 5 mg/kg) of the same compound?
Its infarct volume is “more effective than Edaravone; also recorded: effectively reduced infarct volume”.

Source: patent publication US20230416203A1, “POTENT AND SELECTIVE INHIBITORS OF THE CALCIUM-ACTIVATED POTASSIUM CHANNEL, KCA3.1, FOR USE AS PLATFORM THERAPEUTICS” (priority 2020, published 2023)
